Assay results: patent US20100204145A1, “USE OF A PEPTIDE AS A THERAPEUTIC AGENT” (priority 2007, published 2010)
Ends that are not written are not given here.

Legend:
HIV-1IIIB = assay: HIV-1 antiviral assay in CEM-SS cells (MTS readout); assay type: cell-based; settings: positive controls
Interferon-γ (IFN-γ) = assay: Th1/Th2 cytokine profiling assay, IFN-γ; assay type: cell-based; settings: 10 micrograms per ml; Ovalbumin-restimulated spleen cells of immunized Balb/c mice; 72 hours
Description: (§1) The Balb/c mice (originated in 1923, it is a popular strain and is used in many different research disciplines. Also classified as an inbred from the production of 20 or more successive brother-sister matings, the Balb/c mouse is albino and small in size) were immunized on Days 1, 15, and 29 with Ovalbumin (Ovalbumin is the main protein found in egg white, commonly used to stimulate an immunological reaction in test animals) in PBS (5 micrograms/injection). On day 50, spleens of the mice were harvested (3 weeks after last boost with Ovalbumin). […] Thereafter, additional Ovalbumin was added to the cells at 10 micrograms/ml for in vitro restimulation of the cells. 72 hours later, cell supernatants were harvested and assayed using the Becton Dickinson Mouse Th1/Th2 Cytokine CBA Kit.

[1] = system: Tumor Necrosis Factor-α (TNF-α); assay: Th1/Th2 cytokine profiling assay, TNF-α; assay type: cell-based; settings: 10 micrograms per ml; Ovalbumin-restimulated spleen cells of immunized Balb/c mice; 72 hours
Description: as §1

Interleukin-5 (IL-5) = assay: Th1/Th2 cytokine profiling assay, IL-5; assay type: cell-based; settings: 10 micrograms per ml; Ovalbumin-restimulated spleen cells of immunized Balb/c mice; 72 hours
Description: (§2) The Balb/c mice (originated in 1923, it is a popular strain and is used in many different research disciplines. Also classified as an inbred from the production of 20 or more successive brother-sister matings, the Balb/c mouse is albino and small in size) were immunized on Days 1, 15, and 29 with Ovalbumin (Ovalbumin is the main protein found in egg white, commonly used to stimulate an immunological reaction in test animals) in PBS (5 micrograms/injection). On day 50, spleens of the mice were harvested (3 weeks after last boost with Ovalbumin). […] Thereafter, additional Ovalbumin was added to the cells at 10 micrograms/ml for in vitro restimulation of the cells. 72 hours later, cell supernatants were harvested and assayed using the Becton Dickinson Mouse Th1/Th2 Cytokine CBA Kit. This kit can be used to measure Interleukin-2 (IL-2), Interleukin-4 (IL-4), Interleukin-5 (IL-5), Interferon-γ (IFN-γ), and Tumor Necrosis Factor-α (TNF-α) protein levels in a single sample. The kit performance has been optimized for analysis of physiologically relevant concentrations (μg/ml levels) of specific cytokine proteins in tissue culture supernatants and serum samples.

Interleukin-2 (IL-2) = assay: Th1/Th2 cytokine profiling assay, IL-2; assay type: cell-based; settings: 10 micrograms per ml; Ovalbumin-restimulated spleen cells of immunized Balb/c mice; 72 hours
Description: as §2

RAW 264.7 cells = assay: Phagocytosis assay (Fluorescein-labeled Escherichia coli, flow cytometry); assay type: cell-based, Mouse; settings: 10 micrograms per ml, combination peptide 1:peptide 2 1.10 mole:0.90 mole
Human A549 cells = assay: Apoptosis prevention assay (C2 ceramide, Annexin-5); assay type: cell-based; settings: 10 micrograms per ml, 30 min pretreatment, then C2 ceramide
Interleukin-4 (IL-4) = assay: Th1/Th2 cytokine profiling assay, IL-4; assay type: cell-based; settings: 10 micrograms per ml; Ovalbumin-restimulated spleen cells of immunized Balb/c mice; 72 hours
Description: as §2

Compound: CC(C)(C)NC(=O)[C@@H]1CN(Cc2cccnc2)CCN1C[C@@H](O)C[C@@H](Cc1ccccc1)C(=O)N[C@H]1c2ccccc2C[C@H]1O [indinavir]
- antiviral activity of positive control compounds (HIV-1) (HIV-1IIIB): expected levels of antiviral activity

Compound: Cc1cn([C@H]2C[C@H](N=[N+]=[N-])[C@@H](CO)O2)c(=O)[nH]c1=O [AZT]
- antiviral activity of positive control compounds (HIV-1) (HIV-1IIIB): expected levels of antiviral activity

Compound: CCNC(=O)[C@@H]1CCCN1C(=O)[C@H](CCCNC(=N)N)NC(=O)[C@H](CC(C)C)NC(=O)[C@@H](COC(C)(C)C)NC(=O)[C@H](Cc1ccc(O)cc1)NC(=O)[C@H](CO)NC(=O)[C@H](Cc1c[nH]c2ccccc12)NC(=O)[C@H](Cc1cnc[nH]1)NC(=O)[C@@H]1CCC(=O)N1 [peptide 1, Pyr-His-Trp-Ser-Tyr-D-Ser(tBu)-Leu-Arg-Pro-NHEt]
- IFNγ spleen cells; TH1 response (% of control) (Interferon-γ (IFN-γ)): 76.6 % of control
- TNF-a spleen cells; TH1 response (% of control) [1]: 121.2 % of control
- IL-5 spleen cells; TH2 response (% of control) (Interleukin-5 (IL-5)): 80.4 % of control
- IL-2 spleen cells (% of control) (Interleukin-2 (IL-2)): 175.3 % of control
- increase on the phagocytic activity of murine macrophages (RAW 264.7 cells): 31.4%
- prevention (reduction) of ceramide-induced apoptosis on human lung cells (Human A549 cells): 26.4%
- IL-4 spleen cells; TH2 response (% of control) (Interleukin-4 (IL-4)): 131.6 % of control

Compound: Tyr-Gly-Gly-Phe-Leu-Arg-Arg-OH (YGGFLRR-OH) [peptide 2]
- IFNγ spleen cells; TH1 response (% of control) (Interferon-γ (IFN-γ)): 126.8 % of control
- TNF-a spleen cells; TH1 response (% of control) [1]: 90.3 % of control
- IL-5 spleen cells; TH2 response (% of control) (Interleukin-5 (IL-5)): 66.0 % of control
- IL-2 spleen cells (% of control) (Interleukin-2 (IL-2)): 93.8 % of control
- increase on the phagocytic activity of murine macrophages (RAW 264.7 cells): 25.7%
- prevention (reduction) of ceramide-induced apoptosis on human lung cells (Human A549 cells): 11.5%
- IL-4 spleen cells; TH2 response (% of control) (Interleukin-4 (IL-4)): 81.2 % of control
